The values below come from PMC3779154, “Identification of Therapeutic Candidates for Chronic Lymphocytic Leukemia from a Library of Approved Drugs” (PLoS ONE, 2013).

Counter-ions that a name gives are not always drawn. Like-named read-outs stand apart in the source and are kept apart here. Starred links: 1 amine or outer side, 2 acyl side, 3 side chain; linkers in the order of their positions; H or OH if unused. Positions of bridges follow the written chain, without caps; N, C: chain ends. Non-standard residues stand in square brackets, D forms with d. Residues, ends and D or L forms follow the SMILES beside them. Chains are numbered I, II in the order given. Actinocin(9to1) = Cc1c2oc3c(C)ccc(C(=O)[*:1])c3nc-2c(C(=O)[*:2])c(N)c1=O; NMeV = CN[C@H](C(=O)O)C(C)C; Sar = CNCC(=O)O

Data set [1] concerns fresh CLL patient lymphocytes. Put plainly: cells. The following applies: Homo sapiens.
Method: (§1) Cell viability was measured using a luciferase-based ATP quantitation assay (CellTiter-Glo^TM, Promega). The intracellular ATP content indicates the number of viable (i.e. metabolically competent) cells after compound treatment. […] After that, a total of 23 nL of compounds at 8 selected concentrations from the NPC library or positive control (10 mM stock of doxorubicin hydrochloride) in DMSO was transferred to each well of the assay plate using a pintool (Kalypsys, San Diego, CA), and the plates were further incubated at 37 °C with 5% CO2 for 24 hours to allow the reaction. Then 4µL of CellTilter-Glo luminescent substrate mix was added to each well. The plate was incubated at room temperature for 15 minutes. The plates were measured on a ViewLux plate reader (PerkinElmer) with clear filter. […] The test volume of 5,000 cells/4 μL/well was selected as the final assay condition in cell density tests based on the assay performance statistics: signal/background ratio, coefficient of variation and Z’-factor (data not shown).
(§2) Fresh primary cells were also obtained from two unaffected normal donors and seven CLL patients whose blood samples were collected within hours of apheresis and which had not been included in our previous experiments.
The test system of the next data set is primary CLL cells. Put plainly: qHTS luminescent ATP cell viability assay (CellTiter-Glo), primary screen, frozen CLL patient cells. Type of data set: cell-based, human. Conditions: for cytotoxicity across CLL cell samples: six CLL patient samples, primary screen; for IC50 / Emax: Homo sapiens, CLL cell; for Emax: CLL cells, 24 h, normalized to doxorubicin control, read-out: efficacy (maximal response). An excerpt: Lymphocytes from 13 CLL treatment naïve patients (Table 1 ) and 5 normal donors were obtained by lymphapheresis with written informed consent and isolated by gradient centrifugation using Lymphocyte Separation Medium (MP Biomedicals, Solon, OH) and used fresh or cryopreserved in liquid nitrogen in 10% dimethyl sulfoxide, 90% FCS. CLL patients were consented on the institutional review board (IRB) approved at the National Heart, Lung, and Blood Institute (NHLBI, Office of Clinical Affairs, Bldg 10, CRC. Room 6-5140, Bethesda, Maryland 20892-1608) with protocol 04-H-0012 and samples from normal donors were collected by the Department of Transfusion Medicine, National Institutes of Health (NIH). This study was approved by the IRB mentioned above. Fresh cells were temporally placed on ice and plated for screening within 3 hrs of apheresis. Frozen cells were thawed the night before the assay and incubated in T175 flask in AIM V medium to recover overnight. Analysis of IGHV gene status was performed as described. CLL samples were cultured in AIM V serum free medium (Gibco-Invitrogen, Long Island, NY).
Compound formatting and qHTS were performed as described previously. The final concentration of the NPC compounds in the 4 µL assay volume ranged from 57 µM to 0.7 nM in 1:5 dilution steps. The positive control plate format was as follows: columns 1 and 3, DMSO only; column 2, doxorubicin, a known cytotoxic chemotherapy agent in a 1:2 dilution series from 10 µM to 5 nM in DMSO; and column 4, doxorubicin at 10 µM in DMSO.
To determine compound activity in the qHTS assay, the concentration-response data for each sample was plotted and modeled by a four parameter logistic fit yielding IC50 and efficacy (maximal response) values as previously described. Data normalization and curve fitting were performed using in-house informatics tools. Briefly, raw plate reads for each titration point were first normalized relative to the positive control compound (100%) and DMSO-only wells (basal, 0%), and then corrected by applying a pattern correction algorithm using compound-free control plates (i.e., DMSO-only plates) at the beginning and end of the NPC compound plate stack. […] In brief, Class 1.1 and 1.2 were the highest-confidence complete CRCs containing upper and lower asymptotes with efficacies ≥ 80% and < 80%, respectively. Class 2.1 and 2.2 were incomplete CRCs having only one asymptote with efficacy ≥ 80% and < 80%, respectively.
Compounds from the primary qHTS screen were further classified into three categories according to the quality of curve fit and efficacy.
In general terms: qHTS replaces the single test concentration by a dilution series.

For data set [2], the system named is lymphocytes from normal donors. Briefly: cells. The following applies: Homo sapiens, Lymphocyte, read-out: IC50 normal.
Method: (§3) Cell viability was measured using a luciferase-based ATP quantitation assay (CellTiter-Glo^TM, Promega). The intracellular ATP content indicates the number of viable (i.e. metabolically competent) cells after compound treatment. Four µL of CLL cells resuspended in AIM medium at 1,330,000 cells/ml, were dispensed into each well of white, solid bottom, 1536-well tissue culture–treated plates using a Multidrop-Combi dispenser and incubated overnight. After that, a total of 23 nL of compounds at 8 selected concentrations from the NPC library or positive control (10 mM stock of doxorubicin hydrochloride) in DMSO was transferred to each well of the assay plate using a pintool (Kalypsys, San Diego, CA), and the plates were further incubated at 37 °C with 5% CO2 for 24 hours to allow the reaction. Then 4µL of CellTilter-Glo luminescent substrate mix was added to each well. The plate was incubated at room temperature for 15 minutes. The plates were measured on a ViewLux plate reader (PerkinElmer) with clear filter.
(§4) These compounds were then re-tested in the cell viability assay using 12 point titrations with concentration ranging from 57 µM to 0.3 nM with 1:3 dilution.
as §2
The subject of data set [3] is lymphocytes from normal donors. The following applies: for potency shift between CLL and normal donor samples: fresh cells, normal IC50 vs CLL IC50; for IC50: read-out: IC50 normal, average of 2 normal donors, fresh, Figure 5.
Method: as §3, §4, §2
Data set [4] concerns fresh CLL patient lymphocytes.
Method: as §1, §2
In data set [5] the test system is ME-180 human cervical carcinoma cell line. Briefly: Cell viability assay, ME-180 cells (NPC library profiling). An excerpt: Based on the definition of actives, inactives and inconclusive mentioned above, compounds were further clustered hierarchically using Spotfire DecisionSite 8.2 (Spotfire Inc., Cambridge, MA) based on their activity outcomes from the primary screen across a wide variety of cell viability assays against different cell lines or primary patient cells. Each compound was converted into an integer which represents its activity outcome in each cell viability assay. […] Integer 2 represents compounds in “inconclusive” category which is corresponding to light red in the heat map. […] Compounds not tested in the assay were labeled as 4 and shown as grey in the heat map.

A further data set concerns caspase-3/7. Put plainly: Caspase-Glo 3/7 activation assay in CLL samples. The following applies: read-out: EC50 caspase-3/7 activity; CLL samples, 24 hours. Type of data set: cell-based, human. As for the experimental part:
The effect of selected compounds on caspase activity was measured using a homogeneous luminescent method (Caspase-Glo® 3/7, 8 and 9 kits, Promega, Madison, WI). Briefly in this assay, caspase induced by cells cleaves a pro-luciferin substrate where a tetrapeptide caspase substrate - DEVD (asp-glu-val-asp) is cleaved to free aminoluciferin, which can be used as a substrate by luciferase yielding a bioluminescent signal. The luminescent signal is proportional to the amount of caspase activity present in the cells. Cells were dispensed in culture medium at 5,000/cells/5uL/well in 1536-well white/solid-bottom assay plates. The cells were incubated for overnight at 37°C. The compounds (23nL/well) were added via the pin tool. The treated cells were further incubated for 24 h at 37°C, followed by the addition of the Caspase-Glo 3/7, 8 or 9 reagents at 5uL/well. After a 30 min incubation at room temperature, the luminescence intensity of the assay plates was measured using a ViewLux Plate Reader. The caspase activity was normalized to DMSO control.

Setting [6] is: Lymphocyte, 24 h, confirmation assay, fresh CLL samples, Table S1.
Where [7] appears, read: Lymphocyte, read-out: IC50 CLL, average of cells from 7 CLL patients, fresh, Figure 5.
The mark [8] stands for this setting: read-out: IC50 CLL, average of cells from 7 CLL patients, fresh, Figure 5.
Setting [9] is: confirmation assay, fresh CLL samples, 24 h, Table S1.

For `Cn1c(CCCC(=O)O)nc2cc(N(CCCl)CCCl)ccc21` [bendamustine], the IC50 in data set [1] (Lymphocyte, 24 h) fell in the range of 12 to 30 µM. Regarding `CC(C)C[C@H](NC(=O)[C@H](Cc1ccccc1)NC(=O)c1cnccn1)B(O)O` [bortezomib], the “cytotoxicity across CLL cell samples” value in the data set with primary CLL cells is recorded as “cytotoxicity in all CLL cell samples at similar concentrations”. The compound further displayed an IC50 in data set [1] (setting [6]) below 1 µM.

Consider `COc1cccc2c1C(=O)c1c(O)c3c(c(O)c1C2=O)C[C@@](O)(C(=O)CO)C[C@@H]3O[C@H]1C[C@H](N)[C@H](O)[C@H](C)O1` [doxorubicin], for which the IC50 in data set [2] is 14.4 µM; in data set [1] (setting [7]) it was 4.5 µM. The “potency shift between CLL and normal donor samples” value in data set [3] stood at 3 fold. `COC(=O)C[C@](O)(CCCC(C)(C)O)C(=O)O[C@@H]1C(OC)=C[C@]23CCCN2CCc2cc4c(cc2[C@H]13)OCO4` [omacetaxine mepesuccinate] displayed an IC50 in data set [1] (setting [6]) below 1 µM.

As to `CC(=O)[C@]1(O)Cc2c(O)c3c(c(O)c2[C@@H](O[C@H]2C[C@H](N)[C@H](O)[C@H](C)O2)C1)C(=O)c1ccccc1C3=O` [idarubicin], the IC50 in the data set on primary CLL cells (CLL patient #4705) is 3.2 µM; in the data set with primary CLL cells (CLL patient #4789) it was 0.1 µM; with primary CLL cells (CLL patient #4808), 0.1 µM; in data set [1] (setting [6]) it was below 1 µM. Moreover, the potency shift in the data set on primary CLL cells (patient #4705 compared to #4789 and #4808) turned out to be 32 fold.

On to `CC[C@]1(O)C[C@@H]2CN(CCc3c([nH]c4ccccc34)[C@@](C(=O)OC)(c3cc4c(cc3OC)N(C)[C@H]3[C@@](O)(C(=O)OC)[C@H](OC(C)=O)[C@]5(CC)C=CCN6CC[C@]43[C@@H]65)C2)C1` [vinblastine], for which the “fold more potent in CLL sample #4808 than #4399” value in the data set with primary CLL cells (CLL sample #4808 vs #4399) is above 100 fold. Moreover, the Emax in the data set with primary CLL cells is above 80%. As to `Nc1nc(F)nc2c1ncn2[C@@H]1O[C@H](CO)[C@@H](O)[C@@H]1O` [fludarabine], the IC50 was 12.2 µM in data set [4] (setting [8]); 12 µM in data set [4] (read-out: potency, comparable cell killing against CLL cells and normal lymphocytes); 9.4 µM in data set [3]. The compound `CC[C@@]1(O)C[C@H](O[C@H]2C[C@H](N(C)C)[C@H](O[C@H]3C[C@H](O)[C@H](O[C@H]4CCC(=O)[C@H](C)O4)[C@H](C)O3)[C@H](C)O2)c2c(cc3c(c2O)C(=O)c2c(O)cccc2C3=O)[C@H]1C(=O)OC` [aclarubicin hydrochloride] had an IC50 in data set [1] (Lymphocyte, 24 h) below 1 µM. As for `Cc1cc(-c2ccc(/N=N/c3c(S(=O)(=O)O)cc4cc(S(=O)(=O)O)cc(N)c4c3O)c(C)c2)ccc1/N=N/c1c(S(=O)(=O)O)cc2cc(S(=O)(=O)O)cc(N)c2c1O` [trypan blue], in data set [5], the “cytotoxicity in ME-180 cells” value is reported as “prominent cytotoxicity”. For the compound ivermectin, the “cytotoxicity in ME-180 cells” value in data set [5] is recorded as “prominent cytotoxicity”.

For `CC(=O)[O][Hg][c]1ccccc1` [phenylmercuric acetate], the “cytotoxicity in ME-180 cells” value in data set [5] is given as “prominent cytotoxicity”. As for `CO[C@@H]1[C@H](O)C[C@@H](O[C@@H]2C[C@H](Oc3cc4cc5c(c(O)c4c(O)c3C)C(=O)[C@@H](O[C@H]3C[C@@H](O[C@H]4C[C@@H](O[C@H]6C[C@](C)(O)[C@@H](OC(C)=O)[C@H](C)O6)[C@H](O)[C@@H](C)O4)[C@H](O)[C@@H](C)O3)[C@H]([C@H](OC)C(=O)[C@@H](O)[C@@H](C)O)C5)O[C@H](C)[C@@H]2OC(C)=O)O[C@@H]1C` [chromomycin A3], the IC50 in data set [1] (Lymphocyte, 24 h) is below 1 µM.

Take `C[n+]1cc2c3c(ccc2c2ccc4cc5c(cc4c21)OCO5)OCO3` [sanguinarine]: the “cytotoxicity in ME-180 cells” value in data set [5] is “prominent cytotoxicity”.

`Cc1c2oc3c(C)ccc(C(=O)N[C@@H]4C(=O)N[C@H](C(C)C)C(=O)N5CCC[C@H]5C(=O)N(C)CC(=O)N(C)[C@@H](C(C)C)C(=O)O[C@@H]4C)c3nc-2c(C(=O)N[C@@H]2C(=O)N[C@H](C(C)C)C(=O)N3CCC[C@H]3C(=O)N(C)CC(=O)N(C)[C@@H](C(C)C)C(=O)O[C@@H]2C)c(N)c1=O` [actinomycin D] (I: T[dV]P[Sar][NMeV] / II: T[dV]P[Sar][NMeV]; ester I:1-I:C, II:1-II:C; linker I:N-II:N via Actinocin(9to1)) returned an IC50 in data set [1] (Lymphocyte, 24 h) below 1 µM. In the case of `O=C1c2c(O)ccc(O)c2C(=O)c2c(NCCNCCO)ccc(NCCNCCO)c21` [mitoxantrone], the IC50 in data set [2] is 7 µM; in data set [1] (CLL cell, read-out: potency, comparable cell killing against CLL cells and normal lymphocytes), 6 µM; in data set [1] (setting [6]) it was around 5.4 µM; in data set [1] (setting [7]), 7.2 µM.

Regarding `COc1cc([C@@H]2c3cc4c(cc3[C@@H](O[C@@H]3O[C@@H]5CO[C@@H](c6cccs6)O[C@H]5[C@H](O)[C@H]3O)[C@H]3COC(=O)[C@H]23)OCO4)cc(OC)c1O` [teniposide], the Emax in the data set on primary CLL cells is below 80%. Regarding plicamycin, in the data set on caspase-3/7, the EC50 turned out to be 0.43 µM. Moreover, the IC50 was below 1 µM in data set [4] (setting [9]), 0.75 µM in data set [4] (setting [8]) and 0.84 µM in data set [3]. Moreover, the “difference in efficacy between CLL and unaffected donor samples” value in data set [3] (at 19 µM and 57 µM, the two highest testing concentrations) is recorded as “over 40%”. Moreover, the “potency shift between CLL and normal donor samples” value in data set [3] is “about 3 fold”. Besides, the “decreased efficacy to normal B cells” value in data set [3] (versus CLL cells) is “over 40%”. Regarding `CN(C)c1ccc(C(=C2C=CC(=[N+](C)C)C=C2)c2c(O)c(S(=O)(=O)[O-])cc3cc(S(=O)(=O)[O-])ccc23)cc1.[Na+]` [lissamine green B], the “cytotoxicity in ME-180 cells” value in data set [5] was “prominent cytotoxicity”. As for `CC[C@]1(O)C[C@H]2CN(CCc3c([nH]c4ccccc34)[C@@](C(=O)OC)(c3cc4c(cc3OC)N(C=O)[C@H]3[C@@](O)(C(=O)OC)[C@H](OC(C)=O)[C@]5(CC)C=CCN6CC[C@]43[C@@H]65)C2)C1` [vincristine], in data set [4] (setting [9]), the IC50 is below 1 µM. With `COc1cc2c(cc1O)CCN[C@]21CS[C@@H]2c3c(OC(C)=O)c(C)c4c(c3[C@H](COC1=O)N1[C@@H]2[C@H]2c3c(cc(C)c(OC)c3O)C[C@@H]([C@@H]1O)N2C)OCO4` [trabectedin], the “cytotoxicity across CLL cell samples” value in the data set with primary CLL cells is on record as “cytotoxicity in all CLL cell samples at similar concentrations”. In data set [1] (setting [6]), the IC50 is below 1 µM. With `C[C@H]1CC[C@]2(NC1)O[C@H]1C[C@H]3[C@@H]4CC[C@H]5C[C@@H](O[C@@H]6O[C@H](CO)[C@H](O[C@@H]7O[C@H](CO)[C@@H](O)[C@H](O[C@@H]8OC[C@@H](O)[C@H](O)[C@H]8O)[C@H]7O[C@@H]7O[C@H](CO)[C@@H](O)[C@H](O)[C@H]7O)[C@H](O)[C@H]6O)CC[C@]5(C)[C@H]4CC[C@]3(C)[C@H]1[C@@H]2C` [tomatine], the “cytotoxicity in ME-180 cells” value in data set [5] is recorded as “prominent cytotoxicity”.
